Values joined by “and” are separate entries in the source; they are usually repeats but may differ in a detail not shown here. Equal values may be shown once. Inconclusive results and toxic doses are left out. How the source made its calls: active means survival T/C of 150% or more; inactive means T/C below 125% in these data.
System: BDF1 mice, B16 melanoma ip, median survival T/C
Test: NCI In Vivo Anticancer Drug Screen. Data for tumor model B16 Melanoma (intraperitoneal) in B6D2F1 (BDF1) mice
Settings: endpoint: median survival time, higher = longer survival
Method in brief: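 Tumor-bearing mice received test compound or vehicle. Survival or tumor size was then measured in both groups. The treated-group figure was divided by the control-group figure.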

[1] = dose: 25.0 mg/kg/injection, schedule: Q01DX009 (ip), vehicle: Klucel (hydroxypropylcellulose) (HPC)
[2] = dose: 50.0 mg/kg/injection, schedule: Q01DX009 (ip), vehicle: Klucel (hydroxypropylcellulose) (HPC)
[3] = dose: 100.0 mg/kg/injection, schedule: Q01DX009 (ip), vehicle: Klucel (hydroxypropylcellulose) (HPC)
[4] = dose: 200.0 mg/kg/injection, schedule: Q01DX009 (ip), vehicle: Klucel (hydroxypropylcellulose) (HPC)
[5] = dose: 400.0 mg/kg/injection, schedule: Q01DX009 (ip), vehicle: Klucel (hydroxypropylcellulose) (HPC)
[6] = dose: 6.25 mg/kg/injection, schedule: Q01DX009 (ip), vehicle: saline
[7] = dose: 12.5 mg/kg/injection, schedule: Q01DX009 (ip), vehicle: saline
[8] = dose: 25.0 mg/kg/injection, schedule: Q01DX009 (ip), vehicle: saline
[9] = dose: 200.0 mg/kg/injection, schedule: Q01DX009 (ip), vehicle: saline with Tween-80

Measured: T/C

CNC(=O)NCc1ccc(C(=O)NC(C)C)cc1
inactive: [1] 111 % of control | [2] 98 % of control | [3] 99 % of control | [4] 101 % of control | [5] 101 % of control

Cc1cc(CN)c(C)cc1CN
inactive: dose: 44.0 mg/kg/injection, schedule: Q01DX009 (ip), vehicle: saline 91 % of control

COc1ccc(NC(=O)Nc2ccc(Cl)cc2)cc1
inactive: dose: 100.0 mg/kg/injection, schedule: Q04DX003 (ip), vehicle: Klucel (hydroxypropylcellulose) (HPC) 100 % of control | dose: 200.0 mg/kg/injection, schedule: Q04DX003 (ip), vehicle: Klucel (hydroxypropylcellulose) (HPC) 95 % of control | dose: 400.0 mg/kg/injection, schedule: Q04DX003 (ip), vehicle: Klucel (hydroxypropylcellulose) (HPC) 90 % of control

CCCCOB(/C=C/Sc1ccccc1)OCCCC
inactive: [6] 101 % of control | [7] 119 % of control | [8] 100 % of control | dose: 35.0 mg/kg/injection, schedule: Q01DX009 (ip), vehicle: saline 117 % of control | [2] 102 % of control | dose: 300.0 mg/kg/injection, schedule: Q01DX009 (ip), vehicle: Klucel (hydroxypropylcellulose) (HPC) 101 % of control

COc1cccc2c1cc([N+](=O)[O-])c1c(C(=O)O)cc3c(c12)OCO3
inactive: dose: 2.5 mg/kg/injection, schedule: Q01DX009 (ip), vehicle: Klucel (hydroxypropylcellulose) (HPC) 106 % of control | dose: 5.0 mg/kg/injection, schedule: Q01DX009 (ip), vehicle: Klucel (hydroxypropylcellulose) (HPC) 111 % of control | dose: 10.0 mg/kg/injection, schedule: Q01DX009 (ip), vehicle: Klucel (hydroxypropylcellulose) (HPC) 94 % of control

COc1ccc(C[C@H](N)C(=O)NC2C(CO)OC(n3cnc4c(N(C)C)ncnc43)C2O)cc1 (stereo partly specified)
inactive: dose: 4.0 mg/kg/injection, schedule: Q01DX009 (ip), vehicle: saline 114 % of control | dose: 8.0 mg/kg/injection, schedule: Q01DX009 (ip), vehicle: saline 107 % of control | dose: 16.0 mg/kg/injection, schedule: Q01DX009 (ip), vehicle: saline 109 % of control | dose: 32.0 mg/kg/injection, schedule: Q01DX009 (ip), vehicle: saline 110 % of control and 114 % of control | dose: 40.0 mg/kg/injection, schedule: Q01DX009 (ip), vehicle: saline 108 % of control

Cc1ccc(Cl)cc1NC(=O)c1cccc(C(=O)Nc2cc(Cl)ccc2C)c1
inactive: [2] 96 % of control | [3] 93 % of control

COc1cc(OC)c(OC)cc1/C=C\c1ccc2ccccc2[n+]1C
inactive: [6] 93 % of control | [7] 100 % of control | [8] 97 % of control

CC(C)=CN1CCCCC1
inactive: dose: 12.5 mg/kg/injection, schedule: Q01DX009 (ip), vehicle: saline with Tween-80 101 % of control | dose: 25.0 mg/kg/injection, schedule: Q01DX009 (ip), vehicle: saline with Tween-80 105 % of control | dose: 25.0 mg/kg/injection, schedule: Q04DX003 (ip), vehicle: saline with Tween-80 104 % of control | dose: 50.0 mg/kg/injection, schedule: Q01DX009 (ip), vehicle: saline with Tween-80 108 % of control | dose: 50.0 mg/kg/injection, schedule: Q04DX003 (ip), vehicle: saline with Tween-80 109 % of control | dose: 100.0 mg/kg/injection, schedule: Q04DX003 (ip), vehicle: saline with Tween-80 90 % of control | [9] 86 % of control

CC1=CCC2(C)C(=O)CC3(C)C(CCC4C5(C)CCC(=O)C(C)(C)C5CCC43C)C2C1C (stereo unspecified)
inactive: dose: 1.75 mg/kg/injection, schedule: Q01DX008 (ip), vehicle: saline 100 % of control | dose: 3.5 mg/kg/injection, schedule: Q01DX008 (ip), vehicle: saline 100 % of control | dose: 7.0 mg/kg/injection, schedule: Q01DX008 (ip), vehicle: saline 94 % of control | dose: 14.0 mg/kg/injection, schedule: Q01DX008 (ip), vehicle: saline 99 % of control

O=C(O)CC[S-].[Ag+]
inactive: [8] 99 % of control | dose: 50.0 mg/kg/injection, schedule: Q01DX009 (ip), vehicle: saline 111 % of control | dose: 100.0 mg/kg/injection, schedule: Q01DX009 (ip), vehicle: saline 97 % of control

CC(C)C(Br)C(=O)NC(Cc1ccccc1)C(=O)O (stereo unspecified)
inactive: dose: 100.0 mg/kg/injection, schedule: Q01DX009 (ip), vehicle: saline with Tween-80 104 % of control | [9] 95 % of control

c1ccc(COc2ccc(Nc3ccccc3)cc2)cc1
inactive: [3] 106 % of control | [4] 109 % of control | [5] 112 % of control

CC(CN(C)C)CN1c2ccccc2Sc2ccc(C(F)(F)F)cc21 (stereo unspecified)
inactive: dose: 0.78 mg/kg/injection, schedule: Q01DX009 (ip), vehicle: saline 109 % of control | dose: 1.56 mg/kg/injection, schedule: Q01DX009 (ip), vehicle: saline 105 % of control | dose: 3.12 mg/kg/injection, schedule: Q01DX009 (ip), vehicle: saline 116 % of control | [6] 103 % of control | [7] 103 % of control

Clc1ccc(COC(Cn2ccnc2)c2ccc(Cl)cc2Cl)c(Cl)c1 (stereo unspecified)
inactive: [1] 106 % of control | [2] 115 % of control | [3] 96 % of control | [4] 106 % of control

From PubChem BioAssay AID192 (DTP/NCI, 2004)
